Values of other authors as cited in PMC12308805, “Ultrahigh-Throughput Virtual Screening Strategies against PPI Targets: A Case Study of STAT Inhibitors” (Journal of Chemical Information and Modeling, 2025).
Square brackets hold non-standard residues; d marks the D form. Peptide text beside a SMILES is read from it. pY = N[C@@H](Cc1ccc(OP(=O)(O)O)cc1)C(=O)O

Test system: STAT3
Details: cited from earlier work

Row | SMILES | Type (known STAT3 active)
1 | CC(=O)N[C@@H](Cc1ccc(OP(=O)(O)O)cc1)C(=O)N[C@@H](CC(C)C)C(=O)N1CCC[C@H]1C(=O)N[C@@H](CCC(N)=O)C(=O)N[C@H](C(=O)N[C@H](C(N)=O)C(C)C)[C@H](C)O [CHEMBL502473] | Active

Same assay, conditions: sheet 6QHD_actives_decoys, retrospective screening set for STAT3 SH2 domain (PDB 6QHD); decoys are presumed inactives, not tested; ref DUD-E; cited from earlier work

Row | SMILES | Type
2 | CCCn1c(N)c(N(CCOC)C(=O)Cc2coc3cc(C)c(C(C)C)cc23)c(=O)[nH]c1=O [Decoy953] | Inactive (Decoy)
3 | CC(=O)O[C@@H]1[C@@H](O)[C@H](CO)O[C@H](O[C@@H](/C=N/c2cnc([N+](=O)[O-])s2)[C@@H](CO)O[C@H](O)/C=N/c2cnc([N+](=O)[O-])s2)[C@@H]1O [Decoy908] | Inactive (Decoy)
4 | OC[C@@H](O)[C@H](O[C@@H]1O[C@H](CO)[C@@H](O)[C@H](O)[C@H]1O)[C@@H](O)C(/C=N/Nc1ccccc1)=N/Nc1ccccc1 [Decoy791] | Inactive (Decoy)
5 | COc1cc(C[C@@]2(O)CO[C@H](c3ccc(O[C@@H]4O[C@H](CO)[C@@H](O)[C@H](O)[C@H]4O)c(OC)c3)[C@H]2CO)ccc1O [Decoy816] | Inactive (Decoy)
6 | C=CCOC(=O)c1sc(NC(=O)[C@@H](CC)n2c(N)nnc2SCc2ccccc2Cl)nc1C [Decoy920] | Inactive (Decoy)
7 | CCN(CC)c1ccc2c(-c3ccc(S(=O)(=O)NCCSS(C)(=O)=O)cc3S(=O)(=O)[O-])c3ccc(=[N+](CC)CC)cc-3oc2c1 [Decoy829] | Inactive (Decoy)
8 | CCCCCCCCO[C@@H]1[C@@H](O)[C@H](O)O[C@H](Cn2c(=O)n(C[C@H]3O[C@@H](O)[C@H](O)[C@@H](OCCCCCCCC)[C@@H]3O)c3cc(Cl)ccc32)[C@H]1O [Decoy957] | Inactive (Decoy)
9 | COC(=O)c1sc2cc(SCC(=O)Nc3cc(OC)c(OC)c(OC)c3)ccc2c1/N=C(\O)C(F)(F)F [Decoy807] | Inactive (Decoy)
10 | CCOc1cccc(/C=N/NC(=O)CSc2nnc(-c3cc(OC)c(OC)c(OC)c3)n2-c2ccccc2)c1O [Decoy798] | Inactive (Decoy)
11 | CCOc1ccc(-n2c(SCC(=O)N/N=C/c3ccc(OC)c(OC)c3OC)nnc2-c2ccccc2)cc1 [Decoy778] | Inactive (Decoy)
12 | CCOC(=O)c1sc(NC(=O)CSc2nnc(CNC(=O)c3ccccc3OC)n2C)c(C(=O)OCC)c1C [Decoy843] | Inactive (Decoy)
13 | COc1cc(C(=O)NNC(=S)NC(=O)COc2ccc(Br)cc2C)cc(OC)c1OC [Decoy856] | Inactive (Decoy)
14 | CC1=C/C(=C(\c2cc(C)c(O)c(CN(C)CC(=O)O)c2)c2ccccc2S(=O)(=O)O)C=C(CN(C)CC(=O)O)C1=O [Decoy767] | Inactive (Decoy)

Same assay, conditions: sheet 6QHD_actives_decoys; known STAT3 actives of the retrospective screening set; ref ChEMBL / literature; cited from earlier work

Row | SMILES | Type (known STAT3 active)
15 | NC(=O)CC[C@H](NC(=O)[C@@H]1Cc2cccc3c2N1C(=O)[C@@H](NC(=O)/C=C/c1ccc(OP(=O)(O)O)cc1)C=C3)C(=O)NCc1ccccc1 [CHEMBL508912] | Active
16 | CC(C)C[C@H](NC(=O)/C=C/c1ccc(OP(=O)(O)O)cc1)C(=O)N1CCC[C@H]1C(=O)NCCNC(N)=O [CHEMBL574636] | Active
17 | COC(=O)[C@H](CCC(N)=O)NC(=O)[C@@H]1Cc2cccc3c2N1C(=O)[C@@H](NC(=O)/C=C/c1ccc(OP(=O)(O)O)cc1)CC3 [CHEMBL503365] | Active
18 | CNC(=O)[C@H](CCC(N)=O)NC(=O)[C@@H]1CCCN1C(=O)[C@H](CC(C)C)NC(=O)[C@H](Cc1ccc(OP(=O)(O)O)cc1)NC(C)=O [CHEMBL370095] (Ac-[pY]LPQ-NHMe) | Active
19 | CC(=O)OC[C@H](CCC(N)=O)NC(=O)[C@@H]1[C@@H]2C[C@@H]2CN1C(=O)[C@H](CC(C)C)NC(=O)/C=C/c1ccc(OP(=O)(O)O)cc1 [CHEMBL583726] | Active

Same assay, conditions: sheet 6QHD_actives_decoys; retrospective screening set for STAT3 SH2 domain (PDB 6QHD); […]; ref DUD-E; cited from earlier work

Row | SMILES | Type
20 | C=C1[C@@H](O)[C@@H]2O[C@]3(CC[C@@H]2O[C@@H]1[C@@H](O)C[C@H](C)[C@H]1O[C@@]2(CCCCO2)CC[C@H]1C)CC[C@H](/C=C/[C@@H](C)[C@H]1CC(C)=C[C@@]2(O[C@@H](C[C@@](C)(O)C(=O)O)CC[C@H]2O)O1)O3 [Decoy484] | Inactive (Decoy)
21 | Nc1n(-c2ccccc2)c(=O)c(C(c2ccc([N+](=O)[O-])cc2)c2c([O-])[n+](-c3ccccc3)c(N)n(-c3ccccc3)c2=O)c([O-])[n+]1-c1ccccc1 [Decoy514] | Inactive (Decoy)
22 | Cc1cc(C(=O)Nc2ccc(S(=O)(=O)Nc3ncccn3)cc2)cc(S(=O)(=O)N(C)C)c1C [Decoy675] | Inactive (Decoy)
23 | Cc1ccnc(NS(=O)(=O)c2ccc(NC(=O)c3cc([N+](=O)[O-])c(Cl)c([N+](=O)[O-])c3)cc2)n1 [Decoy530] | Inactive (Decoy)

Same assay, conditions: sheet 6QHD_actives_decoys; retrospective screening set for STAT3 SH2 domain (PDB 6QHD); decoys generated with DUD-E and presumed inactive, not tested; ref DUD-E; cited from earlier work

Row | SMILES | Type
24 | CCN[C@H](c1cc(Br)ccc1Cl)c1cc(Br)ccc1Br [Decoy479] | Inactive (Decoy)
25 | C=C(CCO)C(=O)OC[C@@H]1OC[C@H](OC(=O)C(=C)CCO[C@@H]2O[C@H](COC(=O)C(=C)CCO)[C@@H](O)[C@H](O)[C@H]2O)[C@@H](O)[C@H]1O [Decoy491] | Inactive (Decoy)
26 | CCOC(=O)c1sc(Nc2ccc(NC(=O)C[C@@H](NCCOC)C(=O)O)cc2)nc1C [Decoy654] | Inactive (Decoy)
27 | CC[C@H](C)[C@H](NC(=O)CNC(=O)CCc1c(C)c2cc3c(C)c(C)oc3c(C)c2oc1=O)C(=O)NCCCCCC(=O)O [Decoy720] | Inactive (Decoy)
28 | CCOC(=O)c1sc(N/N=C(\C(=O)Nc2cccc(OC)c2)C(=O)c2ccc([N+](=O)[O-])cc2)c(C(=O)OCC)c1C [Decoy517] | Inactive (Decoy)
29 | CCCN(C(=O)c1cccc([N+](=O)[O-])c1)[C@H](C(=O)NCS(=O)(=O)c1ccc(C)cc1)c1ccc(O)cc1 [Decoy565] | Inactive (Decoy)
30 | CCOC(=O)c1cc(C(=O)OCC)c(=O)[nH]c1NN=C1CCN(c2ncc(C(F)(F)F)cc2Cl)CC1 [Decoy499] | Inactive (Decoy)
31 | CCOC(=O)C1=C(CNc2cc(S(=O)(=O)N(CC)CC)ccc2OC)NC(=O)N[C@H]1c1cc(C)ccc1C [Decoy395] | Inactive (Decoy)
32 | CC(=O)N[C@H]1[C@H](O[C@H]2[C@H](O[C@H](C)C(=O)O)[C@@H](NC(C)=O)[C@@H](OC(C)=O)O[C@@H]2COC(C)=O)O[C@H](COC(C)=O)[C@@H](OC(C)=O)[C@@H]1OC(C)=O [Decoy458] | Inactive (Decoy)
33 | CC(=O)OC[C@H]1O[C@@H](O[C@@]2(CO)O[C@@H](CO)[C@@H](OC(C)=O)[C@H]2OC(C)=O)[C@@H](OC(C)=O)[C@@H](OC(C)=O)[C@@H]1O [Decoy643] | Inactive (Decoy)
34 | CC(=O)O[C@H]1[C@@H](O)[C@H](CO)O[C@H](O[C@@H](C/N=C/c2c(O)ccc3ccccc23)[C@@H](CO)O[C@H](O)C/N=C/c2c(O)ccc3ccccc23)[C@@H]1O [Decoy442] | Inactive (Decoy)
35 | Cc1ccc(S(=O)(=O)CNC(=O)[C@H](c2ccc([N+](=O)[O-])cc2)N(Cc2ccco2)C(=O)CO)cc1 [Decoy577] | Inactive (Decoy)
36 | C=C(CO[C@@H]1[C@H](O)[C@H](CO)O[C@@H](OCC#Cc2ccc(O)c(C(=O)OC)c2)[C@H]1NC(C)=O)C(=O)OCC [Decoy506] | Inactive (Decoy)
37 | CCOC(=O)CNC(=O)CN1CCOCCOCCN(CC(=O)NCC(=O)OCC)CCOCCOCC1 [Decoy595] | Inactive (Decoy)
38 | O=C(NCCCN1CCN(CCCNC(=O)c2cc3ccccc3oc2=O)CC1)c1cc2ccccc2oc1=O [Decoy526] | Inactive (Decoy)
39 | C=CCn1c(CNc2ccc(C)cc2)nnc1SCCC(=O)Nc1sc(C(=O)OCC)c(C)c1C#N [Decoy508] | Inactive (Decoy)
40 | COc1cc(NC(=O)COC(=O)c2cc(OC)c(OC)cc2NC(=O)c2ccco2)cc(OC)c1 [Decoy388] | Inactive (Decoy)
41 | CCOc1cc(/C=N/N=C2\NC(=O)[C@@H](CC(=O)O)S2)cc(Br)c1OS(=O)(=O)c1ccc(C)cc1 [Decoy551] | Inactive (Decoy)
42 | CC(=O)N[C@@H]1[C@@H](O)[C@H](O[C@@H]2O[C@H](CO)[C@H](O)[C@H](O[C@]3(C(=O)O)C[C@H](O)[C@@H](NC(C)=O)[C@H]([C@H](O)[C@H](O)CO)O3)[C@H]2O)[C@@H](CO)O[C@@H]1O [Decoy638] | Inactive (Decoy)
43 | CCCCCOc1ccc([C@H]2C(C(=O)c3ccc4c(c3)OCCO4)=C(O)C(=O)N2CCCN2CCOCC2)cc1OCC [Decoy434] | Inactive (Decoy)
44 | C[C@@]12CCC[C@@](C)(C(=O)O[C@@H]3O[C@@H](CO)[C@@H](O)[C@@H](O)[C@H]3O)[C@H]1CC[C@]13C[C@H](CC[C@H]12)[C@@](CO)(O[C@@H]1O[C@@H](CO)[C@@H](O)[C@@H](O)[C@H]1O)C3 [Decoy524] | Inactive (Decoy)
45 | CCc1nnc(NS(=O)(=O)c2ccc(NC(=O)c3ccc(S(=O)(=O)N(CCC#N)CCC#N)cc3)cc2)s1 [Decoy466] | Inactive (Decoy)
46 | CCOc1ccc(-n2c(CNC(=O)c3ccc(S(=O)(=O)N(C)C)cc3)nnc2SCC(=O)Nc2cccc(C)c2)cc1 [Decoy520] | Inactive (Decoy)
47 | CCOC(=O)c1ccc(N2C(=O)[C@@H](CC(=O)Nc3ccc(OCC)cc3)N(CCc3ccncc3)C2=S)cc1 [Decoy677] | Inactive (Decoy)
48 | COC(=O)c1sc(NC(=O)CCCS(=O)(=O)c2nc(-c3ccccc3OC)cc(C(F)(F)F)n2)c(C(N)=O)c1C [Decoy427] | Inactive (Decoy)
49 | C[C@@H]1O[C@@H](O[C@H]2[C@H](O)C[C@H](O[C@H]3[C@H](O)C[C@H](O[C@H]4CC[C@@]5(C)[C@H](CC[C@@H]6[C@@H]5CC[C@]5(C)[C@@H](C7=CC(=O)OC7)CC[C@]65O)C4)O[C@@H]3C)O[C@@H]2C)C[C@@H](O)[C@@H]1O [Decoy469] | Inactive (Decoy)
50 | COc1ccc(C[C@@H]2COC(=O)[C@@H]2Cc2ccc(O[C@@H]3O[C@H](CO)[C@@H](O)[C@H](O)[C@H]3O)c(OC)c2)cc1OC [Decoy606] | Inactive (Decoy)
51 | COc1ccc(-n2c(=O)[nH]c3cc([C@@H]4N[C@@H](c5ccc(OC)c(OC)c5)NO4)ccc3c2=O)cc1 [Decoy550] | Inactive (Decoy)
52 | CC1=C(/C(O)=N/c2ccc(S(N)(=O)=O)cc2)[C@@H](c2ccco2)C(C#N)=C(SCC(=O)Nc2ccc(F)cc2)N1 [Decoy544] | Inactive (Decoy)
